Columns and labels:
[1] = molecular target: T1, glucocorticoid receptor (GR) (Homo sapiens, UniProt P04150); assay: Glucocorticoid receptor binding with recombinantly prepared receptor, [3H]-dexamethasone as reference; settings: cytosol preparations of Sf9 cells infected with recombinant baculoviruses coding for GR
T1 construct: made in house; host or cells: Sf9 cells infected with recombinant baculovirus (cytosol preparation)
T1 sequence (P04150 1-777): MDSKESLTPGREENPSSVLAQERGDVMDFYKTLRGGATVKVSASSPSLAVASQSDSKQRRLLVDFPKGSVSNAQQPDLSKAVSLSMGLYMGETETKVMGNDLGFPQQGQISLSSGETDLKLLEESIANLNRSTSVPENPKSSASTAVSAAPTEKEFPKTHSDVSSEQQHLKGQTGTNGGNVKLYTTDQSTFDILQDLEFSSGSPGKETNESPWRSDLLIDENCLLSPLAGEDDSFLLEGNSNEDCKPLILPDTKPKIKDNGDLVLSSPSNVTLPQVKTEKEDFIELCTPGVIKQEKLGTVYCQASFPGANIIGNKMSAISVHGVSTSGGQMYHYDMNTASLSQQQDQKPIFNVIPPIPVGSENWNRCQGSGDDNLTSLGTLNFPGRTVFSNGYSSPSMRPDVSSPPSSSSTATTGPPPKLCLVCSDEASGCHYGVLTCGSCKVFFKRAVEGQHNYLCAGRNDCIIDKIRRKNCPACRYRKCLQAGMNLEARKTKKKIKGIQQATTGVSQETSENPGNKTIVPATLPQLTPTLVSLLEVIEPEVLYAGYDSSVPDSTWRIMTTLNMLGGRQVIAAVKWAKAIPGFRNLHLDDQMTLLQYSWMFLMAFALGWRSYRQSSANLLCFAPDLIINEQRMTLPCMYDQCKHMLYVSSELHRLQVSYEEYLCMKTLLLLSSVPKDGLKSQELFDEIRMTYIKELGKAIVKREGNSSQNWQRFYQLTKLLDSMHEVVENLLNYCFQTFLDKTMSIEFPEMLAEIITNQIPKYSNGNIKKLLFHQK
Text: (§1) The binding of the substances to the glucocorticoid receptor (GR) and further steroid hormone receptors (mineral corticoid receptor (MR), progesterone receptor (PR) and androgen receptor (AR)) is examined with the aid of recombinantly prepared receptors. Cytosol preparations of Sf9 cells which had been infected with recombinant baculoviruses which code for the GR are employed for the binding studies. Compared with the reference substance [^3H]-dexamethasdne, the substances show a high affinity for the GR. Thus, an IC50(GR)=20 nM and IC50(PR) >1 μM was measured for the compound of example 1 and an IC50(GR)=30 nM and IC50(PR) >1 μM was measured for the compound of example 2.

[2] = molecular target: T2, progesterone receptor (PR) (Homo sapiens, UniProt P06401); assay: Progesterone receptor binding with recombinantly prepared receptor
T2 construct: made in house
T2 sequence (P06401 1-933): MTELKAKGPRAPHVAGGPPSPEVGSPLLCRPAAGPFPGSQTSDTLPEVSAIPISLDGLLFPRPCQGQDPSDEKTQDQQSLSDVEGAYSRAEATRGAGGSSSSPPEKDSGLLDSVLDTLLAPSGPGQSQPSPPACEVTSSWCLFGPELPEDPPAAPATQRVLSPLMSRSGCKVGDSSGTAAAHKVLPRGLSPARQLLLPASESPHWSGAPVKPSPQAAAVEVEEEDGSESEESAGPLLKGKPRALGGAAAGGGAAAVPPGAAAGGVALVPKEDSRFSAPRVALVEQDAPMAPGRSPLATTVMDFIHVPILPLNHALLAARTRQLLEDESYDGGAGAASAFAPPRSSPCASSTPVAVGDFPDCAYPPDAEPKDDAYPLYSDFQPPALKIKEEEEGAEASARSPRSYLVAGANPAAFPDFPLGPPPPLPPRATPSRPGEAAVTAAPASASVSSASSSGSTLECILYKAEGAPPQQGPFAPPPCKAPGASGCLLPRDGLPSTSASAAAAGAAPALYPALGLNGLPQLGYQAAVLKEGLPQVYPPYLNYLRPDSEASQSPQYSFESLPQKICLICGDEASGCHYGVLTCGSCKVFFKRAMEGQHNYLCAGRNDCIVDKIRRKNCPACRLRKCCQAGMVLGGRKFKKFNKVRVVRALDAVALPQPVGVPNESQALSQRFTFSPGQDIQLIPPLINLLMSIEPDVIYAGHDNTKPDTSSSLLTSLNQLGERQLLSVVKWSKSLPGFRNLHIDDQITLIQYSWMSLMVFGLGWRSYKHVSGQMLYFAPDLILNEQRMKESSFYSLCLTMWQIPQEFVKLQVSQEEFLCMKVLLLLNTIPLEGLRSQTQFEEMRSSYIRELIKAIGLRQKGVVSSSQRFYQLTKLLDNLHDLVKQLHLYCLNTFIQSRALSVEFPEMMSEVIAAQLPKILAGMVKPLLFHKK
Text: as §1

Row | IC50 [1] [nM] | IC50 [2] [nM] | SMILES
1 | 30 | > 1000 | CC1(CC(O)(CNc2cccc3[nH]c(=O)ccc23)C(F)(F)F)CCOc2ccccc21 (single isomer, unassigned) [Example 2, 5-{[2-Hydroxy-3-(4-methylchroman-4-yl)-2-trifluoro-methylpropyl]amino}quinolin-2{1H}-one]
2 | 20 | > 1000 | O=c1ccc2c(NCC(O)(CC3CCOc4ccccc43)C(F)(F)F)cccc2[nH]1 (stereo not shown) [Example 1]

Reference: patent publication US20070129358A1, “Sbstituted chroman derivatives, processes for their preparation and their use as antiinflammatory agents” (priority 2005, published 2007)
